Test results: PubChem BioAssay (NCI)
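Protocol summary: plate cells (96-well), add compound at 5 concentrations, incubate 48 h, interpolate endpoints linearly. TGI is the concentration that stops growth completely.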

Experiments:
Assay in all cases: growth of human tumour cells (NCI), 48 h
OVCAR-8 ovarian = system: OVCAR-8 ovarian
EKVX NSCLC = system: EKVX NSCLC
MDA-MB-435 = system: MDA-MB-435
SK-MEL-28 melanoma = system: SK-MEL-28 melanoma
K-562 leukemia = system: K-562 leukemia
RXF 393 renal = system: RXF 393 renal
SF-295 CNS = system: SF-295 CNS
HOP-92 NSCLC = system: HOP-92 NSCLC
BT-549 breast = system: BT-549 breast
HCC-2998 colon = system: HCC-2998 colon
OVCAR-5 ovarian = system: OVCAR-5 ovarian
MCF7 breast = system: MCF7 breast
CAKI-1 renal = system: CAKI-1 renal
MDA-N = system: MDA-N
UACC-62 melanoma = system: UACC-62 melanoma
NCI-H460 lung = system: NCI-H460 lung
RPMI-8226 leukemia = system: RPMI-8226 leukemia
NCI-H23 lung = system: NCI-H23 lung
HT29 colon = system: HT29 colon

Compound	TGI (OVCAR-8 ovarian) [µM]	TGI (EKVX NSCLC) [µM]	TGI (MDA-MB-435) [µM]	TGI (SK-MEL-28 melanoma) [µM]	TGI (K-562 leukemia) [µM]	TGI (RXF 393 renal) [µM]	TGI (SF-295 CNS) [µM]	TGI (HOP-92 NSCLC) [µM]	TGI (BT-549 breast) [µM]	TGI (HCC-2998 colon) [µM]	TGI (OVCAR-5 ovarian) [µM]	TGI (MCF7 breast) [µM]	TGI (CAKI-1 renal) [µM]	TGI (MDA-N) [µM]	TGI (UACC-62 melanoma) [µM]	TGI (NCI-H460 lung) [µM]	TGI (RPMI-8226 leukemia) [µM]	TGI (NCI-H23 lung) [µM]	TGI (HT29 colon) [µM]
Cc1c(C)c2c(c(N)c1C#N)C(=O)N(CCc1ccccc1)C2=O	> 100	> 100	> 100	> 100	> 100	> 100	> 100	> 100	> 100	> 100	> 100	> 100	> 100	> 100	> 100	> 100	> 100		
Cc1ccc2c(c1)C(=O)/C(=N/Nc1ccc(Cl)cc1)CCO2	> 100	> 100	> 100	> 100	> 100		> 100	> 100	> 100	> 100	> 100	> 100	> 100	> 100	> 100	> 100	> 100	> 100	> 100
Cc1ccc(-n2cnc3c(N)nc(N)nc32)cc1	> 100	> 100	> 100	> 100		> 100	> 100	> 100	> 100	> 100	> 100	> 100	> 100	> 100	> 100		> 100	> 100	> 100
Cc1oc2c(c1C)S(=O)(=O)C(C#N)=C(c1ccccc1)N2	> 100	> 100	> 100	> 100	> 100		> 100	> 100	> 100	> 100	> 100	> 100	> 100	> 100	> 100	> 100	> 100	> 100	> 100
COC(=O)C1=C(O)C(C(=O)OC)[C@]2(O)[C@H](C(=O)OC)[C@H]1C[C@@H](c1ccc(F)cc1)[C@H]2C(=O)OC (some centres not stated)	86.8	41.3	61	27.4	> 100	26.5	43.9	> 100	65.9	28.7	37.5	> 100	> 100	17.1	33.7	63.1	69.7	31	34
C=C1C(=O)C23CC1C[C@H](OC(C)=O)[C@H]2C1(C)C(OC(C)=O)C[C@H](O)C(C)(C)[C@H]1C(=O)[C@@H]3OC(C)=O (some centres not stated)	7.9	15.7	11.4	13.2	> 21	9.75	31.9	7.84	7.4	35.9	22.5	14	8.17	10.7	9.51	33.4	4.81	15.2	17
O=C(O)c1ccc(P(=O)(O)c2ccc(C(=O)O)cc2Br)c(Br)c1	> 100	> 100	> 100	> 100	> 100	> 100	> 100	> 100	> 100	> 100		> 100	> 100	> 100	> 100		> 100	> 100	
O=C(c1cc(Cl)cc(Cl)c1)N(C(=O)N1CCN(c2ccccc2)CC1)c1ccccc1	> 100	> 100	48.5	> 100	> 100	> 100	> 100	> 100	> 100	> 100	> 100	> 100	> 100	30.3	> 100	> 100		> 100	> 100
CC1=NN(C(=O)CC(=O)Nc2ccc(C)cc2)C(=O)C1N=Nc1ccc(C(=O)O)cc1 (configuration not stated)	> 100	> 100	> 100	> 100	> 100	> 100	> 100	> 100	> 100	> 100	> 100	> 100	> 100	> 100	> 100		> 100	> 100	> 100
CCC(C)C(C(=O)N/N=C1/SCC(=O)N1c1ccccc1)C(=O)N/N=C1/SCC(=O)N1c1ccccc1 (configuration not stated)	> 100	> 100	35.9	33.9	> 100	42.9	> 100	45.2	> 100	> 100	> 100	> 100	> 100	94.6	36.9	> 100		> 100	> 100
CO[C@H]1c2cccc3cccc(c23)[C@@H]1n1[nH]c(=O)n(C(C)(C)C)c1=O	> 100	> 100	> 100	> 100	> 100	> 100			> 100	> 100	> 100	> 100	> 100	> 100	> 100	> 100	> 100	> 100	> 100
Cc1csc2nc3c(cnn3C)c(=S)n12	> 100	> 100	> 100	> 100	> 100	> 100	> 100		> 100	> 100	> 100	> 100	> 100	> 100	> 100	> 100	> 100	> 100	> 100
OC(CCN1CCCCC1)(c1ccccc1)c1ccccc1	> 100	> 100	> 100	> 100	> 100	> 100	> 100	> 100	> 100		> 100	> 100	> 100	> 100	> 100		> 100	> 100	> 100
CC(C)(C)O/C=C1/C(=O)OC2C[C@@H](O[Si](C)(C)C(C)(C)C)CC12 (some centres not stated)	> 100	> 100	> 100	> 100		73.3	> 100	> 100	> 100	> 100	> 100	> 100	> 100	> 100		> 100		> 100	> 100
CN(C)C=Nc1cccc2nsnc12	> 100	> 100	> 100	> 100	> 100	> 100	> 100	> 100	> 100		> 100	> 100	> 100	> 100	> 100		> 100	> 100	> 100
N#C/C(=C\c1cn(Cc2ccccc2)c2ccccc12)c1nn(-c2ccccc2)c(N)c1C#N	21.9	27.5	74.6	> 100	> 100	19.2	26.4	27.2	58.3		51.5	> 100	47	88.1	23.6	25.9	> 100	29.7	27.3
O=C1CC(CC(O)[C@@H]2CCCC[C@@H]2O)CC(=O)N1c1ccccc1 (some centres not stated)	> 100		> 100	> 100	> 100	> 100	> 100	> 100	> 100	> 100	> 100	> 100	> 100	> 100	> 100	> 100	> 100	> 100	> 100
C[C@]12C[C@H](c3ccccc3)Nc3ccccc3N1C(c1ccccc1)=NO2	> 100	92.6	> 100		> 100	> 100	> 100	> 100	> 100	> 100	> 100	> 100	> 100	> 100	> 100	> 100	> 100	> 100	> 100
COC(=O)c1c(O)ccc2c1c1c(n2Cc2ccccc2)C(=O)c2ccccc2C1=O	26.2	36.6	28	31.7	36.3	37	36.3	27.1	31.6	17.9	39.2	35	36.9	56.3		59.8	29.2	31.6	22.6
COC(=O)c1cc2c(o1)Sc1ccccc1NC2=O	> 100		> 100	> 100	> 100		> 100	> 100	> 100	> 100	> 100	> 100	> 100	> 100	> 100	> 100	> 100	> 100	> 100
O=c1c(C=Nc2ccccc2Cl)c(O)n(-c2ccccc2)c(=O)n1-c1ccccc1	> 100	> 100	> 100		> 100	> 100	> 100	> 100	> 100	> 100	> 100	> 100	> 100	> 100	> 100	> 100	> 100	> 100	> 100
COc1ccc(Nc2nnc(CCCCCCCCc3nnc(Nc4ccc(OC)cc4)o3)o2)cc1	> 100	> 100	> 100	> 100	> 100	> 100	> 100	> 100	> 100	> 100	> 100	> 100	> 100	> 100		> 100		> 100	> 100
Cc1ccc2nc(CN3CCCC(O)C3)cc(=O)n2c1 (configuration not stated)	> 100	> 100	> 100	> 100	> 100		> 100	> 100	> 100	> 100	> 100	> 100	> 100	> 100	> 100	> 100	> 100	> 100	> 100
Cc1oc2c(c1C)S(=O)(=O)C(C#N)C(c1ccccc1)N2 (configuration not stated)	> 100	> 100	> 100	> 100			> 100	> 100	> 100	> 100	> 100	> 100	> 100	81.5	> 100	> 100		> 100	> 100
COc1nc(C)nc2sc3c(c12)CCCC3	> 100	> 100	> 100	> 100	> 100	> 100	> 100		> 100	> 100	> 100	> 100	> 100	> 100	> 100	> 100	> 100	> 100	> 100
COc1cc(C2SCC(=O)N2c2ccccc2Cl)cc(OC)c1OC (configuration not stated)	> 100	> 100	64.8	> 100	> 100		> 100	> 100	> 100	> 100	> 100	> 100	> 100	44.8	> 100	> 100	> 100	> 100	> 100
